# Measured values: ChEMBL document CHEMBL5034035, “Discovery of an Oxycyclohexyl Acid Lysophosphatidic Acid Receptor 1 (LPA1) Antagonist BMS-986278 for the Treatment of Pulmonary Fibrotic Diseases” (J Med Chem, 2021)
# How the values were obtained:
# [1] = Protein binding in human plasma assessed as free fraction at 3 mg/kg, po or 1 mg/kg, iv measured up to 24 hrs by LC-MS/MS analysis; assay type: ADME, organism-based
# [2] = Protein binding in Sprague-Dawley rat plasma assessed as free fraction at 3 mg/kg, po or 1 mg/kg, iv measured up to 24 hrs by LC-MS/MS analysis; assay type: ADME, organism-based
# [3] = Protein binding in CD-1 mouse plasma assessed as free fraction at 3 mg/kg, po or 1 mg/kg, iv measured up to 24 hrs by LC-MS/MS analysis; assay type: ADME, organism-based
# [4] = target: T1, Cytochrome P450 1A2 (Homo sapiens, UniProt P05177); experiment: Inhibition of CYP1A2 (unknown origin); assay type: ADME
# T1 sequence (P05177 whole entry): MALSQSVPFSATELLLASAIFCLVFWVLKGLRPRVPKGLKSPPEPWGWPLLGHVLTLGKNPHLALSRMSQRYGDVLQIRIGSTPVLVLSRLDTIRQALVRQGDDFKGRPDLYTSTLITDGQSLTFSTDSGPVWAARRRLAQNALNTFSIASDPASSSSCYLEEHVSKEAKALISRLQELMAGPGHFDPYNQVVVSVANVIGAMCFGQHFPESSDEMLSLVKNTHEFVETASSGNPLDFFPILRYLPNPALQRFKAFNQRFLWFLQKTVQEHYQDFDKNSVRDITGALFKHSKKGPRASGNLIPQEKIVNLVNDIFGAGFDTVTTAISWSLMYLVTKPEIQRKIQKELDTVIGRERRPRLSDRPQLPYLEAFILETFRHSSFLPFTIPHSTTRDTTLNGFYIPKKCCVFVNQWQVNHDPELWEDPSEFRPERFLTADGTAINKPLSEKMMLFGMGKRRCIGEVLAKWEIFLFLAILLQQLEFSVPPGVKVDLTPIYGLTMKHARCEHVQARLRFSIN
# [5] = target: T2, Cytochrome P450 2C8 (Homo sapiens, UniProt P10632); experiment: Inhibition of CYP2C8 (unknown origin); assay type: ADME
# T2 sequence (P10632 whole entry): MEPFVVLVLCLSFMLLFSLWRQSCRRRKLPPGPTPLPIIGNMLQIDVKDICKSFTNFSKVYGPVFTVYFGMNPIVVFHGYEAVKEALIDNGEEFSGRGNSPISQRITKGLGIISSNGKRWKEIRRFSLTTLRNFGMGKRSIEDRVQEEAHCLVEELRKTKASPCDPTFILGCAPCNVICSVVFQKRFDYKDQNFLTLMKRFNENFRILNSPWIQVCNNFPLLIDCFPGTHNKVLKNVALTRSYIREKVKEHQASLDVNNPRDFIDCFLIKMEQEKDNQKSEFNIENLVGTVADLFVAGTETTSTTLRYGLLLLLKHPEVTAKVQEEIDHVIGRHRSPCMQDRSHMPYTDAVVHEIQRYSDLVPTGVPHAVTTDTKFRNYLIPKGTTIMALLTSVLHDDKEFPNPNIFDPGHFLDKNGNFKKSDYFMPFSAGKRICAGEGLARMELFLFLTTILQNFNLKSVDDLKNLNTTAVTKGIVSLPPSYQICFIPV
# [6] = target: T3, ATP-binding cassette sub-family C member 4 (Homo sapiens, UniProt O15439); experiment: Inhibition of MRP4 (unknown origin)
# T3 sequence (O15439 whole entry): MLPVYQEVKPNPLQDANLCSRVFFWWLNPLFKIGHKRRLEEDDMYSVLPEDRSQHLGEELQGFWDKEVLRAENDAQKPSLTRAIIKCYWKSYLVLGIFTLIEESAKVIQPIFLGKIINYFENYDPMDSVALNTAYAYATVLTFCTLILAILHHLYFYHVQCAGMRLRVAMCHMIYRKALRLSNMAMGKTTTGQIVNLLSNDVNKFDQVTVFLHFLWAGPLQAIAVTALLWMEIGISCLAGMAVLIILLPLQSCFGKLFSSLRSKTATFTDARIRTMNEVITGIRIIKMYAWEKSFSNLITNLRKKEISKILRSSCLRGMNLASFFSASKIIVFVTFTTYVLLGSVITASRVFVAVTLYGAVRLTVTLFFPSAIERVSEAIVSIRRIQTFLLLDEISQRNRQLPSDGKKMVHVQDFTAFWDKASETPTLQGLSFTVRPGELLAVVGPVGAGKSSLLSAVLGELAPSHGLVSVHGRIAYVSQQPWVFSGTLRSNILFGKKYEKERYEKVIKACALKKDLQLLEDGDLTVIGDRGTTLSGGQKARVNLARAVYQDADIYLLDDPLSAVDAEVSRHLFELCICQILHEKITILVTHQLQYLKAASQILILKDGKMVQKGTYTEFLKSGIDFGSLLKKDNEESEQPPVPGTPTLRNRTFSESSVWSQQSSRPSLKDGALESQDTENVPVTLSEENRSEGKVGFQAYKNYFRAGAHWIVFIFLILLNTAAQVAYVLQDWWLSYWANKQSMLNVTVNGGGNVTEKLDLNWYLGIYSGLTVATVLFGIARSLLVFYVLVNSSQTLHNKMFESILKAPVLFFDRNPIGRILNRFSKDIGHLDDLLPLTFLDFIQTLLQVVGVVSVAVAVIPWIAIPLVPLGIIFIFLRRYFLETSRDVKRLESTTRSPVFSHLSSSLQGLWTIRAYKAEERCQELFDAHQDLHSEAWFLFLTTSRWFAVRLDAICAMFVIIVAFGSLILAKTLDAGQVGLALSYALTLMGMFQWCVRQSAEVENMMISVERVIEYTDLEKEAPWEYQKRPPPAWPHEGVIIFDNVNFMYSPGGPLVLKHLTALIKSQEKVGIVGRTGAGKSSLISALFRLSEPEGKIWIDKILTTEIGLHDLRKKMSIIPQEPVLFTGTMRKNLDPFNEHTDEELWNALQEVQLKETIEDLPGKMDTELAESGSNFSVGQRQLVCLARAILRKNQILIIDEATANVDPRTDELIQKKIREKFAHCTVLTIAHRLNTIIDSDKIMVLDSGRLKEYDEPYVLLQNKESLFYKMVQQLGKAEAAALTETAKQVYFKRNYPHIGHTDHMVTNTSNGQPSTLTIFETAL
# [7] = target: Cytochrome P450 3A4 (Homo sapiens, UniProt P08684); experiment: Inhibition of CYP3A4 (unknown origin); assay type: ADME
# Sequence of Cytochrome P450 3A4 (P08684 whole entry): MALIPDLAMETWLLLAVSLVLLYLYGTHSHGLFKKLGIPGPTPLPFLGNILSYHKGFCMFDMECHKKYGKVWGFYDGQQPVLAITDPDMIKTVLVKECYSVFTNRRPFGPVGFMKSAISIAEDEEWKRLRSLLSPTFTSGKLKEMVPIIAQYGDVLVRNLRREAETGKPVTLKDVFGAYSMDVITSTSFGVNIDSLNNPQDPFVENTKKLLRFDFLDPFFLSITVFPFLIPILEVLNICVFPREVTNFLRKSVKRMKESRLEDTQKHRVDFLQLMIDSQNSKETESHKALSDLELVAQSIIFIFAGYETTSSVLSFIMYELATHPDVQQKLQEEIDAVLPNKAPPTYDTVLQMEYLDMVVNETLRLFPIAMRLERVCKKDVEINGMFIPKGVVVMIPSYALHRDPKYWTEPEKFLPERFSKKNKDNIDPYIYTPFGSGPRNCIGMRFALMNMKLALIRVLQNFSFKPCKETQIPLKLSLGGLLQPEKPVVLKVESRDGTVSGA
# [8] = target: Cytochrome P450 2D6 (Homo sapiens, UniProt P10635); experiment: Inhibition of CYP2D6 (unknown origin); assay type: ADME
# Sequence of Cytochrome P450 2D6 (P10635 whole entry): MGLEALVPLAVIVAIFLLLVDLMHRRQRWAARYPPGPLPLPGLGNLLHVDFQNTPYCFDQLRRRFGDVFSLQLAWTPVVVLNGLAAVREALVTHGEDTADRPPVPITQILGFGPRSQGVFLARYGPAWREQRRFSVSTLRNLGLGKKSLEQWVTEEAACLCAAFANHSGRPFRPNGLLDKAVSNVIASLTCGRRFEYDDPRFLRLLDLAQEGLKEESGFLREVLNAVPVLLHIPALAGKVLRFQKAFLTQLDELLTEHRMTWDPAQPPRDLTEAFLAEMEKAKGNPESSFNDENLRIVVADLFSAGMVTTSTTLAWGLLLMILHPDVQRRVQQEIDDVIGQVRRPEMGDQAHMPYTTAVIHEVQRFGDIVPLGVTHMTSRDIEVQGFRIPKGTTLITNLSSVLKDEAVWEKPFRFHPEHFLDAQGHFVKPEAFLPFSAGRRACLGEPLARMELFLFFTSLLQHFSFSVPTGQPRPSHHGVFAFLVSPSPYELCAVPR
# [9] = target: CYP3A4 (Homo sapiens, UniProt P08684); experiment: Induction of CYP3A4 in human hepatocytes; assay type: ADME, cell-based, Hepatocyte
# Sequence of CYP3A4 (P08684 whole entry): as the sequence (P08684 whole entry) above
# [10] = target: CYP2C9 (Homo sapiens, UniProt P11712); experiment: Induction of CYP2C9 in human hepatocytes; assay type: ADME, cell-based, Hepatocyte
# Sequence of CYP2C9 (P11712 whole entry): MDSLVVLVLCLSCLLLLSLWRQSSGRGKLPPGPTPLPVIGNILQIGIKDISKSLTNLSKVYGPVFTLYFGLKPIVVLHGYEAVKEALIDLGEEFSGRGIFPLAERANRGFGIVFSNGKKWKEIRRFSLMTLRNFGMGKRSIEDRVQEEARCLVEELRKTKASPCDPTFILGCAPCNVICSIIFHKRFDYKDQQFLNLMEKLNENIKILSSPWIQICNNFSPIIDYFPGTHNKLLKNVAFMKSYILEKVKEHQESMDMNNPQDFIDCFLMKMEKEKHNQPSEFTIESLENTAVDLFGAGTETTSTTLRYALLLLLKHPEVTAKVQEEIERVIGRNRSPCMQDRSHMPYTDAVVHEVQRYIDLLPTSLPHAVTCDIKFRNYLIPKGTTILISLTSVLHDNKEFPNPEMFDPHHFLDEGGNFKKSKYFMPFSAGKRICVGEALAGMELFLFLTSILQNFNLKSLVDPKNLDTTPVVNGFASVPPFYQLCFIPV
# [11] = Half life in rat liver microsomes at 10 uM measured after 120 mins; assay type: ADME, Microsome
# [12] = Aqueous solubility of compound at pH 1; assay type: physicochemical
# [13] = Lipophilicity, log D of compound at pH 6.5 by shake-flask method; assay type: physicochemical; conditions: buffer
SMILES,fraction unbound at 24 h [1],fraction unbound at 24 h [2],fraction unbound at 24 h [3],IC50 [4] [µM],IC50 [5] [µM],IC50 [6] [µM],IC50 [7] [µM],IC50 [8] [µM],IC50 [9] [µM],IC50 [10] [µM],half-life at 10 µM [11] [h],solubility [12] [µg/mL],logD [13]
Cc1nc(-c2nnn(C)c2COC(=O)N(C)CC2CCC2)ccc1O[C@H]1CCC[C@H](C(=O)O)C1,0.033,0.053,0.1,> 40,> 40,16,> 40,> 40,> 50,> 50,> 2,389,2.3
Cc1noc(-c2ccc(-c3ccc(C4(C(=O)O)CC4)cc3)cc2)c1NC(=O)O[C@H](C)c1ccccc1 [BMS-986020],0.002,0.002,0.006,> 50,3.5,6.2,> 50,> 50,> 50,> 50,1.27,< 1,3.6
CCCN(C)C(=O)OCc1c(-c2ccc(O[C@H]3CCC[C@H](C(=O)O)C3)c(C)n2)nnn1C [ADMILPARANT],0.056,0.126,0.314,> 40,> 40,47,> 40,> 40,> 50,> 50,> 2,2990,1.95
